Results published in ChEMBL document CHEMBL1144533, “Synthesis and evaluation of 2-{[2-(4-hydroxyphenyl)-ethyl]amino}pyrimidine-5-carboxamide derivatives as novel STAT6 inhibitors” (Bioorg Med Chem, 2007).
Calls of active or inactive are those of the source. The rule behind the calls is not given here.

Columns and labels:
T-cell [1] = test: Effect on differentiation of C57BL/6 mouse T cells assessed as inhibition of IL4 production; type: functional, cell-based; conditions: C57BL/6, T-cell
[2] = target: T1, Signal transducer and activator of transcription 6 (Homo sapiens, UniProt P42226); test: Inhibition of STAT6 in human IL4-stimulated FW4 cells
T1 sequence (P42226 whole entry): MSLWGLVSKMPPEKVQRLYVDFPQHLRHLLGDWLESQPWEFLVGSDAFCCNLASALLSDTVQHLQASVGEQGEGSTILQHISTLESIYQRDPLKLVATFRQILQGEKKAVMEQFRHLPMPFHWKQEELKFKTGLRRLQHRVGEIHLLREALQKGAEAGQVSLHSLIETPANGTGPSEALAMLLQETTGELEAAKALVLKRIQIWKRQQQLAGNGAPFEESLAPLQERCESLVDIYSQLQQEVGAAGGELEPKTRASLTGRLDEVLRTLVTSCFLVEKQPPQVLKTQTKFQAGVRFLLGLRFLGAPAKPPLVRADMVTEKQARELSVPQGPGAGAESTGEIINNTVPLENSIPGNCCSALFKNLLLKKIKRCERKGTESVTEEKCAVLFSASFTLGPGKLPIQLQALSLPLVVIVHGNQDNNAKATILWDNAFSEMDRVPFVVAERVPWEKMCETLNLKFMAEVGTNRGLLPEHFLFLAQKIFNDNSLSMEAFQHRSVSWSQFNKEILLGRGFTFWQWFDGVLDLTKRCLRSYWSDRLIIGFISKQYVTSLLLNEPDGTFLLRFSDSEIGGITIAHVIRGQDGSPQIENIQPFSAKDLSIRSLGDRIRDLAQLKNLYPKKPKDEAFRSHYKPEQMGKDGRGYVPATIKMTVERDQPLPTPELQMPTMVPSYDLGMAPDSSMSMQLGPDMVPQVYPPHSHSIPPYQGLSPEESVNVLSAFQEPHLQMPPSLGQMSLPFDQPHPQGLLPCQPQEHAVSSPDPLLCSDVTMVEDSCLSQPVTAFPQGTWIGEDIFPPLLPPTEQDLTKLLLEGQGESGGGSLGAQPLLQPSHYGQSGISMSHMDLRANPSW

T-cell [3] = test: Effect on differentiation of C57BL/6 mouse T cells assessed as inhibition of IL12-induced TFN-gamma production; type: functional, cell-based
[4] = target: T2, Signal transducer and activator of transcription 6 (Homo sapiens) (UniProt P42226); test: Inhibition of STAT6 in human IL4-stimulated FW4 cells at 10 uM
T2 sequence (whole entry): T1 sequence (P42226 whole entry)

SMILES | IC50 [2] [nM] | also measured
Cc1cccc(Nc2nc(NCCc3ccc(O)cc3)ncc2C(N)=O)c1 | 190 | IC50 (T-cell [1]): 14 nM; Activity (T-cell [3]): inactive
COc1cc(CCNc2ncc(C(N)=O)c(Nc3cccc(C)c3)n2)ccc1O | 660 | –
Cc1cccc(Nc2nc(NCCc3ccc(O)cc3)ncc2C(=O)N(C)C)c1 | 8200 | –
CNC(=O)c1cnc(NCCc2ccc(O)cc2)nc1Nc1cccc(C)c1 | 170 | –
Cc1cccc(Nc2nc(NCCc3ccc(O)c(Cl)c3)ncc2C(N)=O)c1 | 45 | –
NC(=O)c1cnc(NCCc2ccc(O)cc2)nc1Nc1ccccc1 | 410 | –
CCNC(=O)c1cnc(NCCc2ccc(O)cc2)nc1Nc1cccc(C)c1 | 380 | –
NC(=O)c1cnc(NCCc2ccc(O)cc2)nc1NCc1ccccc1 | 88 | –
Cc1cccc(Nc2nc(NCCc3ccccc3)ncc2C(N)=O)c1 | – | inhibition [4]: 16%
Cc1cccc(Nc2nc(NCCc3ccc(O)c(Br)c3)ncc2C(N)=O)c1 | 83 | –
Cc1cccc(Nc2nc(NCCc3cccc(O)c3)ncc2C(N)=O)c1 | 3000 | –
NC(=O)c1cnc(NCCc2ccc(O)c(Cl)c2)nc1NCc1ccccc1 | 21 | IC50 (T-cell [1]): 2.3 nM; Activity (T-cell [3]): inactive
Cc1cccc(Nc2nc(NCCc3ccc(O)c(C)c3)ncc2C(N)=O)c1 | 130 | –
COc1ccc(CCNc2ncc(C(N)=O)c(Nc3cccc(C)c3)n2)cc1 | – | inhibition [4]: 49%
Cc1cccc(Nc2nc(CCCc3ccc(O)cc3)ncc2C(N)=O)c1 | – | inhibition [4]: 32%
Cc1cccc(Nc2nc(NCCc3ccc(O)cc3)ncc2C(=O)NC(C)C)c1 | 1100 | –
NC(=O)c1cnc(NCCc2ccc(O)cc2)nc1NC1CCCCC1 | 100 | –
Cc1cccc(Nc2nc(NCCc3ccc(O)c(F)c3)ncc2C(N)=O)c1 | 64 | –
Cc1cccc(Nc2nc(NCc3ccc(O)cc3)ncc2C(N)=O)c1 | – | inhibition [4]: 19%
Cc1cccc(Nc2nc(NCCc3ccccc3O)ncc2C(N)=O)c1 | – | inhibition [4]: 15%
CNC(=O)c1cnc(NCCc2ccc(O)c(Cl)c2)nc1NCc1ccccc1 | 30 | –
Cc1cccc(Nc2nc(NCCCc3ccc(O)cc3)ncc2C(N)=O)c1 | – | inhibition [4]: 23%
